Assay [1] has as its target T1, Aryl hydrocarbon receptor (Homo sapiens, UniProt P35869).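 Also: confirmatory quantitative high-throughput screen measuring activation of the AhR signaling pathway.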
T1 sequence (P35869 whole entry): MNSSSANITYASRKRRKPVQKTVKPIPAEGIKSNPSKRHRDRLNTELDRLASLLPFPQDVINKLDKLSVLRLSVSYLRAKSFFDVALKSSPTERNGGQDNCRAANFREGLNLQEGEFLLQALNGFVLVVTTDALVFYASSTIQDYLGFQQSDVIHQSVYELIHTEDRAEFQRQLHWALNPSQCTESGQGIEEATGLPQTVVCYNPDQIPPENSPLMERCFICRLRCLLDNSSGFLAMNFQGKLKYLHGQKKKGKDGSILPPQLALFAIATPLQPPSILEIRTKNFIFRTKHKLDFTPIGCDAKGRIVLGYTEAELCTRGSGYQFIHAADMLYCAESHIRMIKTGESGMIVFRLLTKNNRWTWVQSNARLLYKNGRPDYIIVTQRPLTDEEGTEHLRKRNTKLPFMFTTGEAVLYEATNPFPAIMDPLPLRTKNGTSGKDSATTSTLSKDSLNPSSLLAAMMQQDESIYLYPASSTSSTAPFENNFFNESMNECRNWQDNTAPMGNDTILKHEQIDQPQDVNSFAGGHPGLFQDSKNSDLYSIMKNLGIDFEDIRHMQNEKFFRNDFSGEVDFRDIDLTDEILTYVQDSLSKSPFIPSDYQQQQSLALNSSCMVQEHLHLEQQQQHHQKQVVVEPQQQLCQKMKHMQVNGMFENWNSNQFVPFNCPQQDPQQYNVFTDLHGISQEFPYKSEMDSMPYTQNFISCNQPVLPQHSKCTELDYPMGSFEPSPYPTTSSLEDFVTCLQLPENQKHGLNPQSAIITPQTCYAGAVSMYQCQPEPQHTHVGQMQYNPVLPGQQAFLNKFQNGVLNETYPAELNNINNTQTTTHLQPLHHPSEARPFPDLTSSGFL
The conditions noted are these: Potency.

In assay [2] the target is Protein disulfide-isomerase (Homo sapiens, UniProt P07237). The experiment in a line: inhibition of PDI-driven insulin aggregation – biochemical, turbidity, absorbance, cherry-picked samples, dose response (AID 602350). It is filed as functional.
In assay [3] the target is Ras and Rab interactor 1/Tyrosine-protein kinase ABL1 (Homo sapiens, UniProt P00519+Q13671). In kind it is functional.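 Also: biochemical TR-FRET dose-response test measuring inhibition of binding between Rin1 and Abl proteins.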
Assay [4] concerns the target Dual specificity tyrosine-phosphorylation-regulated kinase 1A (Rattus norvegicus, UniProt Q63470). In kind it is biochemical, Homo sapiens.
Assay [5] has as its target Tyrosine-protein phosphatase non-receptor type 5 (Homo sapiens, UniProt P54829). Briefly: PTPN5 enzyme inhibition – biochemical, fluorescence intensity, uHTS hits, confirmation (AID 602372). In kind it is functional. The conditions noted are these: read-out: IC50_Mean.
Assay [6] addresses Dual specificity protein phosphatase 3 (Homo sapiens, UniProt P51452). Briefly: VHR phosphatase inhibition, dose response, selectivity assay for STEP inhibitor project, biochemical (AID 602374). In kind it is functional. The settings on record: read-out: IC50_Mean.
Assay [7] deals with Tyrosine-protein phosphatase non-receptor type 11 (Homo sapiens, UniProt Q06124). Briefly: PTPN11 enzyme inhibitors – biochemical, selectivity assay for STEP inhibitor project, dose response (AID 602367). It is filed as functional. The conditions noted are these: read-out: IC50_Mean.
The target of assay [8] is T2, Low molecular weight phosphotyrosine protein phosphatase (Homo sapiens, UniProt P24666).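 Also: Dose-response confirmation assay measuring inhibition of LMPTP enzyme activity by fluorescence intensity read-out.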
T2 sequence (P24666 whole entry): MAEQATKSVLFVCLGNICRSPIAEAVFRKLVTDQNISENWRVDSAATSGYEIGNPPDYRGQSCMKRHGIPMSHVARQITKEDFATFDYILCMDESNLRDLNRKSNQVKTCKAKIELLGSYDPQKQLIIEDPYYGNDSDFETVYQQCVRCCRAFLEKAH
It is filed as functional. The conditions noted are these: read-out: IC50_Mean.

Assay [9] has as its target T3, Replicative DNA helicase DnaB (Mycobacterium tuberculosis, UniProt P9WMR3).
T3 sequence (P9WMR3 whole entry): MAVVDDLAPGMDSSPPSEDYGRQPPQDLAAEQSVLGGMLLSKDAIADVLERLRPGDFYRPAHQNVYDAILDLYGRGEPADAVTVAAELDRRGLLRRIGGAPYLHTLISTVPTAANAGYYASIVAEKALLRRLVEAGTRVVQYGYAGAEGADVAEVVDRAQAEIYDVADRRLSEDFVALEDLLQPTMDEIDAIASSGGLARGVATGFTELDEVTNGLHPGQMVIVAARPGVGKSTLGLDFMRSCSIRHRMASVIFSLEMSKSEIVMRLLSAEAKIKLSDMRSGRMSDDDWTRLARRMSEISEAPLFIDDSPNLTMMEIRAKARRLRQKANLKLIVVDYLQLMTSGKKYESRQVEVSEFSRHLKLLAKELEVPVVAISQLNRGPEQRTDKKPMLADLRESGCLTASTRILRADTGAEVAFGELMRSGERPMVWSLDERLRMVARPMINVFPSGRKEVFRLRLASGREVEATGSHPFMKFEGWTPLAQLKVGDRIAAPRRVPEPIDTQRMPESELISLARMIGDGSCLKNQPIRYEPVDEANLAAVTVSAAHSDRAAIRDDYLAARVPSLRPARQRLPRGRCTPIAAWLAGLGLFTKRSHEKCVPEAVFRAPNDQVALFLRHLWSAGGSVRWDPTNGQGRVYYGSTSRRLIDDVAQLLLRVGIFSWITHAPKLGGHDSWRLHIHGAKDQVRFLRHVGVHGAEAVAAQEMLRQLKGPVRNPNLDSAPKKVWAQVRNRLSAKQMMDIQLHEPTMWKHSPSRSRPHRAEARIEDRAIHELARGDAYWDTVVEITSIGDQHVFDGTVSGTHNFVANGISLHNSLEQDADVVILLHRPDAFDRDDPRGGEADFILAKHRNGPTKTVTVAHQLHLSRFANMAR
Briefly: DnaB intein splicing inhibitors, dose response, biochemical, cell-free fluorescence (AID 449749). In kind it is functional.

The target in assay [10] is T4, Protein RecA (Mycobacterium tuberculosis, UniProt P9WHJ3).
T4 sequence (P9WHJ3 whole entry): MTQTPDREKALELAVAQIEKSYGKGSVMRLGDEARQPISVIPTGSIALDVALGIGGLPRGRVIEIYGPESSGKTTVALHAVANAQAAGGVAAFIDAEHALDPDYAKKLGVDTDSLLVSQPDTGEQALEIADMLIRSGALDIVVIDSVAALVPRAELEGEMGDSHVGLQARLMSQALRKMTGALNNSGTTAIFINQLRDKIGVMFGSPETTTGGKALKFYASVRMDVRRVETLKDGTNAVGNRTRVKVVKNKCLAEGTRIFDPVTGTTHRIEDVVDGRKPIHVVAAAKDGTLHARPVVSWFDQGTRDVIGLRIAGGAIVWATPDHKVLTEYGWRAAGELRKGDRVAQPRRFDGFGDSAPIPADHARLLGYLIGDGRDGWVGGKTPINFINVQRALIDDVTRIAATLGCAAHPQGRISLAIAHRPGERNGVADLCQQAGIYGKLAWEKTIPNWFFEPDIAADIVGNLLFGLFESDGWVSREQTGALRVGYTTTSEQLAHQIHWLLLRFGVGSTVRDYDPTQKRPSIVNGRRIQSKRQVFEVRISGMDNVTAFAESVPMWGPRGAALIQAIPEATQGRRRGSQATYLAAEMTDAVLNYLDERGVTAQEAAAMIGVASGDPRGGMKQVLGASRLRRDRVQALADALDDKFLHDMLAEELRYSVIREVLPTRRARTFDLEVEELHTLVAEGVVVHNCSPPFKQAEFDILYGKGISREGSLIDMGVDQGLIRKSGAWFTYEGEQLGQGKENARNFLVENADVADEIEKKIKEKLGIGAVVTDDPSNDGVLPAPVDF
The experiment in a line: Fluorescence Cell-Free Homogeneous Dose Retest to Identify Inhibitors of RecA-Intein Splicing Activity. [Related pubchem assays (depositor defined):AID2097, AID2223, AID489010, AID492950]. In kind it is functional.

The target in assay [11] is T5, Apoptotic protease-activating factor 1 (Homo sapiens, UniProt O14727).
T5 sequence (O14727 whole entry): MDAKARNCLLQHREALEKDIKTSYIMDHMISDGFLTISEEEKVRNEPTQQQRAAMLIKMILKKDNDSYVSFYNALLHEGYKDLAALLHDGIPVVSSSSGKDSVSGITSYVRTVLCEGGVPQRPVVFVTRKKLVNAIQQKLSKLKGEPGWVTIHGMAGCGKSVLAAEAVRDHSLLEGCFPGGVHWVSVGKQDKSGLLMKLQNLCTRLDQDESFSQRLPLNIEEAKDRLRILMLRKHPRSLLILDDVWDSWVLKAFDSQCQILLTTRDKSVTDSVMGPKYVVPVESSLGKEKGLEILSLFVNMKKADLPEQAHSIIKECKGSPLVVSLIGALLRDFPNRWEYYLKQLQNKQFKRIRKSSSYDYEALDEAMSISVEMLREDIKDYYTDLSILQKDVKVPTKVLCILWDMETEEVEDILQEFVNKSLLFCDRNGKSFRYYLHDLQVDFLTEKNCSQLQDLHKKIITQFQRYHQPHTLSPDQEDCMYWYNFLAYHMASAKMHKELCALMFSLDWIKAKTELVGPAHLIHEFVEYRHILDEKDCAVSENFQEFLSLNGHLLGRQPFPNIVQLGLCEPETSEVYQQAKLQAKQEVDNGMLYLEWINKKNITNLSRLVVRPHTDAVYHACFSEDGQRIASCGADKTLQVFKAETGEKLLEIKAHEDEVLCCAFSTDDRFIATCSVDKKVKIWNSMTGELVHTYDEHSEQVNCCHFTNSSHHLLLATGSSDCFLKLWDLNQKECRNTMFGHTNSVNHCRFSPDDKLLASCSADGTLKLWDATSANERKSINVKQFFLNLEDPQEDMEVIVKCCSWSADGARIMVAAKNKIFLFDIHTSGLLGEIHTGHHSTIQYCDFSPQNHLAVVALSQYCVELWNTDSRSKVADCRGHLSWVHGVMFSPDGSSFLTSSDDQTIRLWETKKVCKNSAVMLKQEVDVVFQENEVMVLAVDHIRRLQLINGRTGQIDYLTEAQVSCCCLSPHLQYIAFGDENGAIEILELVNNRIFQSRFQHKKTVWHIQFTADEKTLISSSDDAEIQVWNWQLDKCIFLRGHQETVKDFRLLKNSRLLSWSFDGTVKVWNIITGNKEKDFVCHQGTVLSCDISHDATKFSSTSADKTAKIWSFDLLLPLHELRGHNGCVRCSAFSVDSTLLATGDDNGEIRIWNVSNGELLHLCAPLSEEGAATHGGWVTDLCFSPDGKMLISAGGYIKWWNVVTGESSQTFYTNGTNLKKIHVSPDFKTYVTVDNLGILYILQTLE
In kind it is functional.

Assay [12] concerns the target T6, Oxysterols receptor LXR-beta (Homo sapiens, UniProt P55055).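 Also: Cell-based luminescence dose-response assay of agonist activity at LXR, run as a confirmatory counterscreen to a daf-12 agonist screen; HEK293 cells with Gal4-LXR fusion and GAL4-driven luciferase reporter; agonist potency from rising luciferase signal of a Gal4-LXR reporter.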
T6 sequence (P55055 whole entry): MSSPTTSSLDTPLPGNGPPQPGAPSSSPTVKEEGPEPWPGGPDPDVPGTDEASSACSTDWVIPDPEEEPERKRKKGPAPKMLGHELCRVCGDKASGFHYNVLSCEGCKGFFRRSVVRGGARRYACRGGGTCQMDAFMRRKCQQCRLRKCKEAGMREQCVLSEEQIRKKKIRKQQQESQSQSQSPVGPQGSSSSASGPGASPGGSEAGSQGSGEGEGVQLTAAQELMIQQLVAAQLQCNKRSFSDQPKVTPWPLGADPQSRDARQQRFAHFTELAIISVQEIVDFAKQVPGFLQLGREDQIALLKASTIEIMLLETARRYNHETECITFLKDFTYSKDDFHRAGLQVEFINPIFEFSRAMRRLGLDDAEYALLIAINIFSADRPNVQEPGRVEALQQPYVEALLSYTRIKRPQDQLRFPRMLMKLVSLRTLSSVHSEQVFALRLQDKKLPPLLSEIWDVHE
In kind it is functional, cell-based.

The nature of assay [13]: cells.
In assay [14] the target is Cytochrome P450 3A4 (Homo sapiens, UniProt P08684). The settings on record: Potency.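 Also: confirmatory qHTS run detecting inhibitors and substrates of CYP3A4.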
The target in assay [15] is T5, Apoptotic protease-activating factor 1. The experiment in a line: SAR analysis of small molecule Activators of Apaf-1 in a Fluorescent assay. The settings on record: read-out: EC50_Mean. It is filed as functional.

Active and inactive are the calls of the source.
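For EC50 Mean in this document: caspase-3 cleavage of fluorogenic Rh110 DEVD substrate downstream of apoptosome activation.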

Chain of Protein disulfide-isomerase (P07237 whole entry): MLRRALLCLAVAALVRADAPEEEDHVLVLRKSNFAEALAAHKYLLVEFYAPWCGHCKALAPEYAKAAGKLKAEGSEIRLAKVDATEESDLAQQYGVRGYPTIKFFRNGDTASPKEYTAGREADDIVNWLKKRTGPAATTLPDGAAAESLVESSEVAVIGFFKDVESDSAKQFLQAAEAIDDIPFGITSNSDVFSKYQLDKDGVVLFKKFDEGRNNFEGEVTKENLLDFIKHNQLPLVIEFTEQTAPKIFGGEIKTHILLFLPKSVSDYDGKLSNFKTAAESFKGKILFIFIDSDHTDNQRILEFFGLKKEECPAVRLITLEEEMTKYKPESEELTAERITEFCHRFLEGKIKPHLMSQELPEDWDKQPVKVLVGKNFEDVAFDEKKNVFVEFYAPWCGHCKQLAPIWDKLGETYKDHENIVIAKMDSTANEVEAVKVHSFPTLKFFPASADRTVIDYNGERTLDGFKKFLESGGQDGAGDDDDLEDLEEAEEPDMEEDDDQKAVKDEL
Chain of Ras and Rab interactor 1/Tyrosine-protein kinase ABL1 (P00519 whole entry): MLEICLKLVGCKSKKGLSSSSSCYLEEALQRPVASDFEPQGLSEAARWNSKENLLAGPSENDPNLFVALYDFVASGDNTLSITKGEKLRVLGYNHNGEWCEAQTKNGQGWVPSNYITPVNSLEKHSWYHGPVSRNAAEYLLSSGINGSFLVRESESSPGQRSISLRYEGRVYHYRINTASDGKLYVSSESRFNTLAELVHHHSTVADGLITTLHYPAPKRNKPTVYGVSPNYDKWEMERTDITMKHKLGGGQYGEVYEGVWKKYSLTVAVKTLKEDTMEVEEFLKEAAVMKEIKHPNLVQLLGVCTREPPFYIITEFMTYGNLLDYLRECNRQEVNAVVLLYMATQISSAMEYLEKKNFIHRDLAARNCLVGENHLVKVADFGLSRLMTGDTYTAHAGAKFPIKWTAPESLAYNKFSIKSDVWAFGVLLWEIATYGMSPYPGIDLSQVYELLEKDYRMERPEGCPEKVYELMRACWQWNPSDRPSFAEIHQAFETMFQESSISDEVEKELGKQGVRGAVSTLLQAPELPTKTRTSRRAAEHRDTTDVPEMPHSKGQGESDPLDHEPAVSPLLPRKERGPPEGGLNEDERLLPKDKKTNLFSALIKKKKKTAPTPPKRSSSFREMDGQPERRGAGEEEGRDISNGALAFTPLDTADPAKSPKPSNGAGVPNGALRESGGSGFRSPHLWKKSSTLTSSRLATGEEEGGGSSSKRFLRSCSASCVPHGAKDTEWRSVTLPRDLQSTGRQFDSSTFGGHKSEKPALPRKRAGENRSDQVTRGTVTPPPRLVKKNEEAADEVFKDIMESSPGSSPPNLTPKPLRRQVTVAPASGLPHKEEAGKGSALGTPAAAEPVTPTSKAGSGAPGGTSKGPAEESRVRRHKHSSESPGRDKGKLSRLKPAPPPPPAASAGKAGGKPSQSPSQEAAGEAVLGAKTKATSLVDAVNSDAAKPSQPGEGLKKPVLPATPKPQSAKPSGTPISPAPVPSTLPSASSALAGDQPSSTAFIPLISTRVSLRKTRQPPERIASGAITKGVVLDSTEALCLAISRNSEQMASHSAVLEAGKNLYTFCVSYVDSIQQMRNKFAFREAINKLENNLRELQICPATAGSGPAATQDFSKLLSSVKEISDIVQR
Chain of Ras and Rab interactor 1/Tyrosine-protein kinase ABL1 (Q13671 whole entry): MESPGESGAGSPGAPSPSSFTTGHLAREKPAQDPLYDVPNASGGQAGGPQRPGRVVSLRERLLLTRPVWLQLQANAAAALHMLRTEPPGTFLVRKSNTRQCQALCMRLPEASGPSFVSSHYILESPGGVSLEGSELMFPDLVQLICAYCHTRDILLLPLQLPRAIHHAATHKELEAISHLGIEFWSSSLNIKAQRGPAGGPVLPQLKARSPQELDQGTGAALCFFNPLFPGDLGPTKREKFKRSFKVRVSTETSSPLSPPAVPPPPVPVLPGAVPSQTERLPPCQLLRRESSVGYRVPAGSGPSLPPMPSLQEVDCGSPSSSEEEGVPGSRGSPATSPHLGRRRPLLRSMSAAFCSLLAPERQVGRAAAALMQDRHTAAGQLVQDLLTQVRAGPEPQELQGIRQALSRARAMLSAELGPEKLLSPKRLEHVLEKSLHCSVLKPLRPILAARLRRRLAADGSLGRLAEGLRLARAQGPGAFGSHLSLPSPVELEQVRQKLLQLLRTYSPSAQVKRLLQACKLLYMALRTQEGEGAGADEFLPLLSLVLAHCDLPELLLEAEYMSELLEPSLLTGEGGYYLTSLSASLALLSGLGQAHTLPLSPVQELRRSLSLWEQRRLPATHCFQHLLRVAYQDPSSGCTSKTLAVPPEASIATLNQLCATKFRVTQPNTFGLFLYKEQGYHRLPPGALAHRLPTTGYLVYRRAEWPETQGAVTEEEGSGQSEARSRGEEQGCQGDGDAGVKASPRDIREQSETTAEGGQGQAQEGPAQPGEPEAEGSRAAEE
Chain of Tyrosine-protein phosphatase non-receptor type 5 (P54829 whole entry): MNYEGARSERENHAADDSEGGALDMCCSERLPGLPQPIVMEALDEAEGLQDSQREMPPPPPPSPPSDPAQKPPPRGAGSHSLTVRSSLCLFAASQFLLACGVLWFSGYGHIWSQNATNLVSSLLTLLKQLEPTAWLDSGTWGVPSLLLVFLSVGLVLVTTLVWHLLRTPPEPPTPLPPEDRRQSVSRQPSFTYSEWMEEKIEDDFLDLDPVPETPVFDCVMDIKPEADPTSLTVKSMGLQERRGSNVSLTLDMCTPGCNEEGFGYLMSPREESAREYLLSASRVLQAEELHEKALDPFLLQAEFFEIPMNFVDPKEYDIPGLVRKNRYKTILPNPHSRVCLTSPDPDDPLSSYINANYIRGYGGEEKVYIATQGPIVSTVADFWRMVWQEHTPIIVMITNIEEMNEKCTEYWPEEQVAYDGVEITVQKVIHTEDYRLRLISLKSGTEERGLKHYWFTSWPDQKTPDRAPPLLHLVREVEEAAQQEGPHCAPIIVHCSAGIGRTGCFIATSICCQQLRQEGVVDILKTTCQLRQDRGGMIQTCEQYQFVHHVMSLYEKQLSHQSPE
Chain of Tyrosine-protein phosphatase non-receptor type 11 (Q06124 whole entry): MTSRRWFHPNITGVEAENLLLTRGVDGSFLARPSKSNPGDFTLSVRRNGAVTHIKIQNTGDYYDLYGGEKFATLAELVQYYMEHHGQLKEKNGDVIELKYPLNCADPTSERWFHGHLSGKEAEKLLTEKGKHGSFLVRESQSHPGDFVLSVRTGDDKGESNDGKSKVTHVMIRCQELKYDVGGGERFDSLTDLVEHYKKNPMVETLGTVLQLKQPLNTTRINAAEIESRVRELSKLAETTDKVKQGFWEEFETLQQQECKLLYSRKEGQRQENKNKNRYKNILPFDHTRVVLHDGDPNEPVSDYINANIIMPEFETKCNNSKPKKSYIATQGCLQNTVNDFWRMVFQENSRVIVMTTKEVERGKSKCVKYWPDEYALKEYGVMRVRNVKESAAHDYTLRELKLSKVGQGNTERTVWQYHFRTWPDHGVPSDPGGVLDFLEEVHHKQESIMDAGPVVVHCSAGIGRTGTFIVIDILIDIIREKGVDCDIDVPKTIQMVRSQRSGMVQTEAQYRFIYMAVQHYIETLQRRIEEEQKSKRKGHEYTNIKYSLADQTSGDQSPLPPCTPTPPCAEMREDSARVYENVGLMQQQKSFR
Chain of Cytochrome P450 3A4 (P08684 whole entry): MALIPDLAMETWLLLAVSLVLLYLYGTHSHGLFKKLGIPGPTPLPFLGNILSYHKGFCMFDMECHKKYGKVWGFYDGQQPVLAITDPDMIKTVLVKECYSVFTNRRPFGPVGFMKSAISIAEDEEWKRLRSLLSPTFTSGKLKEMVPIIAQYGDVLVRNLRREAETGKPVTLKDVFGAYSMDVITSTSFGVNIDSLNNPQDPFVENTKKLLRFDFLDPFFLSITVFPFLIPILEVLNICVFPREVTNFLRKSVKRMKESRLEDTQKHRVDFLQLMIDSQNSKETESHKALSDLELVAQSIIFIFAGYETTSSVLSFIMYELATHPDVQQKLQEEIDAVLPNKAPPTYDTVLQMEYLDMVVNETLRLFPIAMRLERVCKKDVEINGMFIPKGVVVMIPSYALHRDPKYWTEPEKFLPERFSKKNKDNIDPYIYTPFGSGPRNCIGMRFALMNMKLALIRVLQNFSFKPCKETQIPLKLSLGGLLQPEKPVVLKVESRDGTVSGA
Chain of Dual specificity protein phosphatase 3 (P51452 whole entry): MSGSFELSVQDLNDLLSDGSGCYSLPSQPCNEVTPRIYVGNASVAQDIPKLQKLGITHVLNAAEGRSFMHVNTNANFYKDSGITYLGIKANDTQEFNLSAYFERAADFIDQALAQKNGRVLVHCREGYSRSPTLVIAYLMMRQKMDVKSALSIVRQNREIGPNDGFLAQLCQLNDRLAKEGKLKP

In the case of `CC(C)OC(=O)Cc1ccccc1`, the AC50 in assay [1] is 35.5 µM (inconclusive). For the compound `O=c1c(O[C@@H]2O[C@H](CO)[C@@H](O)[C@H](O)[C@H]2O)c(-c2ccc(O)cc2)oc2cc(O)cc(O)c12` [ASTRAGALIN], the AC50 in assay [2] was 19 µM (active). As for `C[C@@H]1O[C@@H](O[C@H]2[C@H](O)[C@@H](O)[C@H](Oc3c(-c4ccc(O)cc4)oc4cc(O)cc(O)c4c3=O)O[C@@H]2CO)[C@H](O)[C@H](O)[C@H]1O`, in assay [2], the concentration at half-maximal activity (AC50) was 6.92 µM (active). For the compound `C[C@@H]1O[C@@H](OC[C@H]2O[C@@H](Oc3c(-c4ccc(O)c(O)c4)oc4cc(O)cc(O)c4c3=O)[C@H](O)[C@@H](O)[C@@H]2O)[C@H](O)[C@H](O)[C@H]1O`, in assay [3], the IC50 was > 73.5 µM (inactive). The half-maximal activity concentration (AC50) is 4.08 µM (active) in [4] and 7.62 µM (active) in assay [2]. Consider `Cc1ccc(S(=O)(=O)N2CCCCC2)cc1NC(=O)c1ccc(=O)[nH]c1`, for which the IC50 in assay [5] was 29.6 µM (inactive); in [6] it was 3.08 µM (active); in assay [7] it was 4.88 µM (active); in assay [8], 37.1 µM (inactive). `CCCc1n[nH]c2c1C(c1ccc(OC)c(CSC3=NCCS3)c1)C(C#N)=C(N)O2` (stereo unspecified): in assay [9], the AC50 is 2.99 µM (active). Moreover, the EC50 in [10] is 4.56 µM (active). The IC50 in assay [11] is 23.9 µM (active). As for `O=[N+]([O-])c1ccccc1-c1ccc(C(=S)N2CCCC2)o1`, the IC50 in assay [11] is 49.8 µM (active). For the same compound, the EC50 in assay [12] and in [13] was > 67.5 µM (inactive) in each case. Consider `COc1ccccc1CNC(=O)CSc1nnc2ccc(-c3cccnc3)nn12`, for which, in [3], the IC50 is > 73.5 µM (inactive). Consider `Nc1ccc(Cl)c(Cl)c1`, for which the half-maximal activity concentration (AC50) in assay [14] was 25.1 µM (inconclusive); in assay [1], 56.2 µM (inconclusive). Turning to `O=C(Nc1ccc(F)cc1F)C1CC(c2ccc(F)cc2)=NO1` (stereo unspecified), the EC50 in assay [15] was > 100 µM (inactive).

On to `CN1CCC(Oc2ccccc2N2CC(C(=O)O)CC2=O)CC1` (stereo unspecified), for which the EC50 in assay [15] was > 100 µM (inactive).

The AC50 is the midpoint of the concentration-response curve, whichever way the signal moves.

Source of the values: ChEMBL document CHEMBL1201862, “PubChem BioAssay data set” (2004).
